Laboratory results published in the NIST ThermoML archive (doi:10.1021/acs.jced.9b00248).

Assay: mn = molality of the nth substance listed, in mol/kg
Conditions: Liquid; for viscosity: Vibrating wire viscometry; for mass density: Vibrating tube method

[Cl-].[Na+] [sodium chloride] + O
Conditions | mass density [kg/m3] | viscosity [mPa·s]
274.65 K, 1400 kPa, m1 = 0.77 | – | 1.748
274.65 K, 15300 kPa, m1 = 0.77 | – | 1.718
274.65 K, 30200 kPa, m1 = 0.77 | – | 1.704
274.65 K, 50100 kPa, m1 = 0.77 | – | 1.7
274.83 K, 15210 kPa, m1 = 0.77 | 1039.38 | –
274.83 K, 30120 kPa, m1 = 0.77 | 1045.95 | –
274.83 K, 49950 kPa, m1 = 0.77 | 1054.41 | –
274.83 K, 69810 kPa, m1 = 0.77 | 1062.53 | –
274.83 K, 99820 kPa, m1 = 0.77 | 1074.13 | –
274.95 K, 1340 kPa, m1 = 2.5 | 1098.36 | –
274.95 K, 15260 kPa, m1 = 2.5 | 1103.81 | –
274.95 K, 30190 kPa, m1 = 2.5 | 1109.5 | –
274.95 K, 50040 kPa, m1 = 2.5 | 1116.83 | –
274.95 K, 69930 kPa, m1 = 2.5 | 1123.92 | –
274.95 K, 99990 kPa, m1 = 2.5 | 1134.12 | –
296.19 K, 1330 kPa, m1 = 2.5 | 1090.47 | –
296.19 K, 15240 kPa, m1 = 2.5 | 1095.73 | –
296.19 K, 30160 kPa, m1 = 2.5 | 1101.16 | –
296.19 K, 50020 kPa, m1 = 2.5 | 1108.18 | –
296.19 K, 69880 kPa, m1 = 2.5 | 1115.02 | –
296.19 K, 99980 kPa, m1 = 2.5 | 1124.82 | –
296.22 K, 1380 kPa, m1 = 0.77 | 1028.25 | –
296.22 K, 15220 kPa, m1 = 0.77 | 1034.12 | –
296.22 K, 49930 kPa, m1 = 0.77 | 1048.04 | –
296.22 K, 69810 kPa, m1 = 0.77 | 1055.61 | –
296.22 K, 99840 kPa, m1 = 0.77 | 1066.51 | –
323.3 K, 1380 kPa, m1 = 2.5 | 1077.94 | –
323.3 K, 15290 kPa, m1 = 2.5 | 1083.2 | –
323.3 K, 30220 kPa, m1 = 2.5 | 1088.58 | –
323.3 K, 50060 kPa, m1 = 2.5 | 1095.53 | –
323.3 K, 69950 kPa, m1 = 2.5 | 1102.24 | –
323.3 K, 100010 kPa, m1 = 2.5 | 1111.99 | –
323.33 K, 1340 kPa, m1 = 0.77 | 1017.8 | –
323.33 K, 15260 kPa, m1 = 0.77 | 1023.47 | –
323.33 K, 30160 kPa, m1 = 0.77 | 1029.36 | –
323.33 K, 69840 kPa, m1 = 0.77 | 1044.3 | –
323.33 K, 99890 kPa, m1 = 0.77 | 1054.9 | –
348.21 K, 1360 kPa, m1 = 2.5 | 1064.12 | –
348.21 K, 1380 kPa, m1 = 0.77 | 1004.37 | –
348.21 K, 15260 kPa, m1 = 0.77 | 1010.15 | –
348.21 K, 15270 kPa, m1 = 2.5 | 1069.47 | –
348.21 K, 30180 kPa, m1 = 0.77 | 1016.18 | –
348.21 K, 30200 kPa, m1 = 2.5 | 1075.01 | –
348.21 K, 50000 kPa, m1 = 0.77 | 1023.83 | –
348.21 K, 50060 kPa, m1 = 2.5 | 1082.15 | –
348.21 K, 69880 kPa, m1 = 0.77 | 1031.26 | –
348.21 K, 69960 kPa, m1 = 2.5 | 1089.02 | –
348.21 K, 99920 kPa, m1 = 0.77 | 1041.89 | –
348.21 K, 100020 kPa, m1 = 2.5 | 1098.91 | –
348.34 K, 1400 kPa, m1 = 0.77 | – | 0.412
348.34 K, 15300 kPa, m1 = 0.77 | – | 0.416
348.34 K, 30200 kPa, m1 = 0.77 | – | 0.421
348.34 K, 50000 kPa, m1 = 0.77 | – | 0.429
348.34 K, 69900 kPa, m1 = 0.77 | – | 0.433
373.22 K, 1380 kPa, m1 = 2.5 | 1047.69 | –
373.22 K, 15310 kPa, m1 = 2.5 | 1053.49 | –
373.22 K, 30230 kPa, m1 = 2.5 | 1059.36 | –
373.22 K, 50090 kPa, m1 = 2.5 | 1066.79 | –
373.22 K, 69960 kPa, m1 = 2.5 | 1073.94 | –
373.22 K, 100040 kPa, m1 = 2.5 | 1084.13 | –
373.25 K, 1400 kPa, m1 = 0.77 | 988.09 | –
373.25 K, 15310 kPa, m1 = 0.77 | 994.18 | –
373.25 K, 30220 kPa, m1 = 0.77 | 1000.44 | –
373.25 K, 50060 kPa, m1 = 0.77 | 1008.5 | –
373.25 K, 69930 kPa, m1 = 0.77 | 1016.2 | –
373.25 K, 99960 kPa, m1 = 0.77 | 1027.15 | –
373.31 K, 1400 kPa, m1 = 0.77 | – | 0.31
373.31 K, 30200 kPa, m1 = 0.77 | – | 0.318
373.31 K, 50000 kPa, m1 = 0.77 | – | 0.323
373.31 K, 69900 kPa, m1 = 0.77 | – | 0.329
373.31 K, 100000 kPa, m1 = 0.77 | – | 0.338
398.18 K, 1400 kPa, m1 = 0.77 | – | 0.247
398.18 K, 15300 kPa, m1 = 0.77 | – | 0.251
398.18 K, 30200 kPa, m1 = 0.77 | – | 0.256
398.18 K, 50100 kPa, m1 = 0.77 | – | 0.26
398.18 K, 70000 kPa, m1 = 0.77 | – | 0.265
398.18 K, 100000 kPa, m1 = 0.77 | – | 0.273
398.29 K, 1390 kPa, m1 = 2.5 | 1029.58 | –
398.29 K, 15300 kPa, m1 = 2.5 | 1035.58 | –
398.29 K, 30230 kPa, m1 = 2.5 | 1041.92 | –
398.29 K, 50080 kPa, m1 = 2.5 | 1049.89 | –
398.29 K, 69980 kPa, m1 = 2.5 | 1057.41 | –
398.29 K, 100050 kPa, m1 = 2.5 | 1068.15 | –
398.81 K, 1460 kPa, m1 = 0.77 | 969.16 | –
398.81 K, 15370 kPa, m1 = 0.77 | 975.7 | –
398.81 K, 30260 kPa, m1 = 0.77 | 982.49 | –
398.81 K, 50080 kPa, m1 = 0.77 | 991.06 | –
398.81 K, 69950 kPa, m1 = 0.77 | 999.13 | –
398.81 K, 99990 kPa, m1 = 0.77 | 1010.69 | –
423.31 K, 15300 kPa, m1 = 0.77 | – | 0.206
423.31 K, 30200 kPa, m1 = 0.77 | – | 0.212
423.31 K, 50100 kPa, m1 = 0.77 | – | 0.216
423.31 K, 70000 kPa, m1 = 0.77 | – | 0.22
423.31 K, 100000 kPa, m1 = 0.77 | – | 0.228
423.62 K, 1410 kPa, m1 = 2.5 | 1009.24 | –
423.62 K, 15330 kPa, m1 = 2.5 | 1015.81 | –
423.62 K, 30250 kPa, m1 = 2.5 | 1022.75 | –
423.62 K, 50100 kPa, m1 = 2.5 | 1031.25 | –
423.62 K, 69990 kPa, m1 = 2.5 | 1039.38 | –
423.62 K, 100050 kPa, m1 = 2.5 | 1050.77 | –
423.73 K, 1450 kPa, m1 = 0.77 | 947.66 | –
423.73 K, 15370 kPa, m1 = 0.77 | 954.86 | –
423.73 K, 30270 kPa, m1 = 0.77 | 962.29 | –
423.73 K, 50110 kPa, m1 = 0.77 | 971.57 | –
423.73 K, 69960 kPa, m1 = 0.77 | 980.32 | –
423.73 K, 100000 kPa, m1 = 0.77 | 992.59 | –
448.27 K, 30300 kPa, m1 = 0.77 | – | 0.181
448.27 K, 50100 kPa, m1 = 0.77 | – | 0.185
448.27 K, 70000 kPa, m1 = 0.77 | – | 0.19
448.27 K, 100000 kPa, m1 = 0.77 | – | 0.197
448.85 K, 1410 kPa, m1 = 2.5 | 987.39 | –
448.85 K, 15330 kPa, m1 = 2.5 | 994.66 | –
448.85 K, 30260 kPa, m1 = 2.5 | 1002.41 | –
448.85 K, 50110 kPa, m1 = 2.5 | 1011.56 | –
448.97 K, 1460 kPa, m1 = 0.77 | 923.83 | –
448.97 K, 15380 kPa, m1 = 0.77 | 932.02 | –
448.97 K, 30290 kPa, m1 = 0.77 | 940.31 | –
448.97 K, 50120 kPa, m1 = 0.77 | 950.53 | –
448.97 K, 69980 kPa, m1 = 0.77 | 960.05 | –
448.97 K, 100000 kPa, m1 = 0.77 | 973.43 | –
